Measured values reported in patent publication US4734428A, “Aminoethylimidazole and cytoprotective and gastric antisecretory composition containing the same” (Jouveinal S.A., priority 1984, dated 1988).
Read-outs that look alike come from different tables or passages of the source.

Assays:
thromboxane synthetase [1] = biological target: T1, thromboxane synthetase (Oryctolagus cuniculus, UniProt G1TAZ9); test: inhibition of TXB2 synthesis (thromboxane synthetase) in washed rabbit platelets; assay type: cell-based; conditions: for activity relative to 1-benzyl imidazole: reference 1-benzyl imidazole
T1 construct: carried out in vitro on washed rabbit platelets; endogenous in cells; host or cells: washed rabbit platelets
T1 sequence (G1TAZ9 1-530): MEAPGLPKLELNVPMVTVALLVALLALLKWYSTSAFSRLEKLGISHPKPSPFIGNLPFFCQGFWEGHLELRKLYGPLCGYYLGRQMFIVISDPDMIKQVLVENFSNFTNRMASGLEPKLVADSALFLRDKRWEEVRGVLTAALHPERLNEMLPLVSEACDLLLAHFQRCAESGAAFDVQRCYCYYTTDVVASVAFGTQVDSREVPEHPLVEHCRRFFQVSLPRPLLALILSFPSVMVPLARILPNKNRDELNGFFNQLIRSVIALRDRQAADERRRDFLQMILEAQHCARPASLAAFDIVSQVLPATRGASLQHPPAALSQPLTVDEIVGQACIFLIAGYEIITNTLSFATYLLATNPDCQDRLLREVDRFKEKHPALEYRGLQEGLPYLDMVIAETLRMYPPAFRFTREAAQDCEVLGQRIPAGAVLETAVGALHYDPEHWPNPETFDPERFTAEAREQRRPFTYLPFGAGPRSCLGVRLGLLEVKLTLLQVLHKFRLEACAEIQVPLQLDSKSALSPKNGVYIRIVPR
Protocol: (§1) The test performed was carried out in vitro on washed rabbit platelets. It was based on the publications of NEEDLEMAN (1977. Proc. Natl. Acad. Sci. 74, 1716) and SALMON (1982, Cardiovascular Pharmacol. of the Prostaglandins--Raven Press N.Y. pp. 7 to 22). It makes it possible both to determine the reduction of the synthesis of TXB2 and also the possible increase of the synthesis of PGE2. Thus, it is possible to determine the activity of the products on the PG:TX ratio.
(§2) The results given in the following tables are expressed in CEx%, i.e. in micromolar concentrations per liter permitting an inhibition by x% of the synthesis of TXB2. In the adjacent column, the symbol + means that the effect also causes an increase in the synthesis of PGE2.

[2] = acute toxicity (LD50, mice); conditions: mouse, in vivo, 14 days
Protocol: The acute toxicity of the products was investigated in male SWISS/IOPS mice weighing approximately 22 g. The 50% lethal dose (LD50) was calculated by the method of L. J. REED and H. MUNCH (Am. J. Hyg. 1939-37-493) 14 days following the […] treatment of batches of 10 animals per dose and on the basis of 4 to 6 doses per product. The results of this investigation are given in table 3 for the products of examples 1 to 8 and in table 4 for the products of examples 9 to 12.

gastric mucosa = test: cytoprotection test, gastric ulceration caused by absolute ethanol; assay type: in vivo, Sprague Dawley rats; conditions: rat; for ED50 values relative to the two routes compared: oral versus parenteral (s.c.) route
Protocol: The cytoprotective activity was investigated in connection with the stressing of the gastric mucosa caused by ethanol.
The cytoprotection test was carried out in accordance with the procedure described by A. ROBERT et al (Gastroenterology 1979-77-433). Batches of six male Sprague Dawley rats, which had not received solid food for 24 hours before the test, received by the oral route 1 ml/rat of absolute ethanol, after receiving the product to be tested 30 minutes beforehand by the subcutaneous […] 1 hour beforehand by the oral route. One hour after ingesting the ethanol, the rats were killed by stretching and their stomachs were carefully removed, opened along the greater curvature, washed under running water and spread out. The ulcerations were then marked and measured under a binocular lamp. An index representing the sum of the lengths of the ulcers is then determined for each rat and the mean value of these indexes for each batch is calculated and compared with that of the control batch using the Student "t" test. The 50% effective dose (ED50) is then graphically determined when possible. In other cases, the percentage inhibition obtained with the aid of the maximum tested dose is given. The results are given in table 5 for the products of examples 1 to 8 and in table 6 for the products of examples 9 to 12.

synthesis of PGE2 = test: increase of PGE2 synthesis in washed rabbit platelets; assay type: cell-based; set-up: key: +: the effect also causes an increase in the synthesis of PGE2; conditions: in vitro
Protocol: as §1, §2

thromboxane synthetase [3] = conditions: human platelets; literature; cited from earlier work
[4] = oral route, read-out: LD50 % oral route
[5] = oral route, 1 hour before absolute ethanol, read-out: ED50% oral route
[6] = sc, s.c. route, 30 minutes before absolute ethanol, read-out: ED50% s.c. route
[7] = ip, read-out: LD50 % i.p. route
[8] = washed rabbit platelets, in vitro, 50% inhibition of TXB2 synthesis, read-out: Inh. TX B2 CE50%

Compound	LD50 at 336 h [2, 4] [mg/kg]	ED50 (gastric mucosa; [6]) [mg/kg]	LD50 at 336 h [2, 7] [mg/kg]	IC50 (thromboxane synthetase [1]; [8]) [µM]	Incr. PGE2 (synthesis of PGE2)	other results
CN(C)C(C)(C)Cn1ccnc1 [Ex. 6A]	> 1180					IC41 (thromboxane synthetase [1]; washed rabbit platelets, in vitro, 41% inhibition of TXB2 synthesis, read-out: Inh. TX B2 CE41%): 50 µM
CCC(Cn1ccnc1C)(c1ccccc1)N(C)C (stereo not drawn) [Ex. 2A, 1-[(2-phenyl-2-ethyl)-2-N,N-dimethylaminoethyl]-2-methylimidazole]	500	12.6	157			IC10 (thromboxane synthetase [1]; washed rabbit platelets, in vitro, 10% inhibition of TXB2 synthesis, read-out: Inh. TX B2 CE10%): 50 µM; ED50 (gastric mucosa; [5]): 12 mg/kg; ED50 values relative to the two routes compared (gastric mucosa): roughly equivalent
CCC(Cn1ccnc1-c1ccccc1)(c1ccccc1)N(C)C (stereo not drawn) [Ex. 5A]				50		
CN(C)CC(C)(C)n1ccnc1 [Ex. 6B]	> 1180			50		
CCC(Cc1ccccc1)(Cn1ccnc1)N(C)C (stereo not drawn) [Ex. 7A]	480	26.6		< 1	+	
CCc1nc(C)cn1C(CC)(CN(C)C)c1ccccc1 (stereo not drawn) [Ex. 4B]	298	4	47			
CCC(CN(C)C)(c1ccccc1)n1ccnc1C (stereo not drawn) [Ex. 2B, 1-[(1-phenyl-1-ethyl)-2-N,N-dimethylaminoethyl]-2-methylimidazole]	393	10	137			IC18 (thromboxane synthetase [1]; washed rabbit platelets, in vitro, 18% inhibition of TXB2 synthesis, read-out: Inh. TX B2 CE18%): 50 µM; ED50 (gastric mucosa; [5]): 12 mg/kg; ED50 values relative to the two routes compared (gastric mucosa): roughly equivalent
CCC(CN(C)C)(c1ccccc1)n1ccnc1 (stereo not drawn) [Ex. 1B, 1-[(1-phenyl-1-ethyl)-2-N,N-dimethylaminoethyl]-imidazole]	285	8.1	145	17.4	+	ED50 (gastric mucosa; [5]): 7.1 mg/kg; ED50 values relative to the two routes compared (gastric mucosa): roughly equivalent
COc1ccc(CC(C)(Cn2ccnc2)N(C)C)cc1 (stereo not drawn) [EX. 9, 1-[(2-p-methoxybenzyl-2-methyl)-2-N,N-dimethylaminoethyl]imidazole dihemimaleate]	758		231	4.5	+	activity relative to 1-benzyl imidazole (thromboxane synthetase [1]; washed rabbit platelets): equal to clearly superior activity
CCC(CN(C)C)(c1ccccc1)n1ccnc1-c1ccccc1 (stereo not drawn) [Ex. 5B]	840					IC20 (thromboxane synthetase [1]; washed rabbit platelets, in vitro, 20% inhibition of TXB2 synthesis, read-out: Inh. TX B2 CE20%): 50 µM
CCC(CN(C)C)(c1ccccc1)n1cnc(-c2ccccc2)c1-c1ccccc1 (stereo not drawn) [Ex. 3B]	> 1150					ED50 (gastric mucosa; [5]): 26 mg/kg
CCC(Cn1ccnc1)(c1ccccc1)N(C)C (stereo not drawn) [Ex. 1A, 1-[(2-phenyl-2-ethyl)-2-N,N-dimethylaminoethyl]-imidazole]	559	11	326	3.7	+	activity relative to 1-benzyl imidazole (thromboxane synthetase [1]; washed rabbit platelets): equal to clearly superior activity; ED50 (gastric mucosa; [5]): 13 mg/kg; ED50 values relative to the two routes compared (gastric mucosa): roughly equivalent
CN(C)C(C)(Cn1ccnc1)c1ccc(-c2ccccc2)cc1 (stereo not drawn) [EX. 11]	183			11.2	+	ED40 (gastric mucosa; sc, s.c. route, 30 minutes before absolute ethanol): 10 mg/kg
CCC(Cn1ccnc1)(c1ccccc1)N(C)C (single isomer, unassigned) [EX. 12, 1-[(2-phenyl-2-ethyl)-2-N,N-dimethylaminoethyl]-imidazole]	780	5.3		11.3	+	
CCCCCC(Cn1ccnc1)(c1ccccc1)N(C)C (stereo not drawn) [Ex. 8A]	287	25		0.56	+	activity relative to 1-benzyl imidazole (thromboxane synthetase [1]; washed rabbit platelets): equal to clearly superior activity
CCC(Cc1ccccc1)(CN(C)C)n1ccnc1 (stereo not drawn) [Ex. 7B]	384	8.5				IC35 (thromboxane synthetase [1]; washed rabbit platelets, in vitro, 35% inhibition of TXB2 synthesis, read-out: Inh. TX B2 CE35%): 100 µM
CCC(Cn1cnc(-c2ccccc2)c1-c1ccccc1)(c1ccccc1)N(C)C (stereo not drawn) [Ex. 3A]	> 1150					
CCCCCC(CN(C)C)(c1ccccc1)n1ccnc1 (stereo not drawn) [Ex. 8B]	562	9	346	2.15	+	activity relative to 1-benzyl imidazole (thromboxane synthetase [1]; washed rabbit platelets): equal to clearly superior activity
CN(C)C(C)(COc1ccc(Cl)cc1)Cn1ccnc1 (stereo not drawn) [EX. 10]	86	10	32	13.2	+	
c1ccc(Cn2ccnc2)cc1 [1-Benzyl-Imidazole, 1-benzyl imidazole, reference compound]						IC50 (thromboxane synthetase [1]): 13.4 µM; thromboxane synthetase inhibition in words (thromboxane synthetase [3]): thromboxane synthetase inhibitor
